Legend:
Experiment in all cases: Kinase panel
Assay type in all cases: biochemical
Settings in all cases: read-out: % Residual Activity
Ret(h) = molecular target: T1, Ret(h) (Homo sapiens, UniProt P07949)
T1 construct: purchased Eurofins (KinaseProfiler)
Outline: (§1)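 For each panel kinase, rilpivirine inhibition is measured by radioactive phosphate transfer with ATP at that enzyme's Km, […].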

MARK3(h) = molecular target: T2, MARK3(h) (Homo sapiens, UniProt P27448)
T2 construct: purchased Eurofins (KinaseProfiler)
Outline: as §1

CK1γ1(h) = molecular target: T3, CK1γ1(h) (Homo sapiens, UniProt Q9HCP0)
T3 construct: purchased Eurofins (KinaseProfiler)
Outline: as §1

TNIK(h) = molecular target: T4, TNIK(h) (Homo sapiens, UniProt Q9UKE5)
T4 construct: purchased Eurofins (KinaseProfiler)
Outline: as §1

NEK1(h) = molecular target: T5, NEK1(h) (Homo sapiens, UniProt Q96PY6)
T5 construct: purchased Eurofins (KinaseProfiler)
Outline: as §1

TrkB(h) = molecular target: T6, TrkB(h) (Homo sapiens, UniProt Q16620)
T6 construct: purchased Eurofins (KinaseProfiler)
Outline: as §1

SGK3(h) = molecular target: T7, SGK3(h) (Homo sapiens, UniProt Q96BR1)
T7 construct: purchased Eurofins (KinaseProfiler)
Outline: as §1

MRCKβ(h) = molecular target: T8, MRCKβ(h) (Homo sapiens, UniProt Q9Y5S2)
T8 construct: purchased Eurofins (KinaseProfiler)
Outline: as §1

EphA8(h) = molecular target: T9, EphA8(h) (Homo sapiens, UniProt P29322)
T9 construct: purchased Eurofins (KinaseProfiler)
Outline: as §1

ALK1(h) = molecular target: T10, ALK1(h) (Homo sapiens, UniProt P37023)
T10 construct: purchased Eurofins (KinaseProfiler)
Outline: as §1

TrkA(h) = molecular target: T11, TrkA(h) (Homo sapiens, UniProt P04629)
T11 construct: purchased Eurofins (KinaseProfiler)
Outline: as §1

PAK4(h) = molecular target: T12, PAK4(h) (Homo sapiens, UniProt O96013)
T12 construct: purchased Eurofins (KinaseProfiler)
Outline: as §1

STK32A(h) = molecular target: T13, STK32A(h) (Homo sapiens, UniProt Q8WU08)
T13 construct: purchased Eurofins (KinaseProfiler)
Outline: as §1

PAK1(h) = molecular target: T14, PAK1(h) (Homo sapiens, UniProt Q13153)
T14 construct: purchased Eurofins (KinaseProfiler)
Outline: as §1

Hck(h) = molecular target: T15, Hck(h) (Homo sapiens, UniProt P08631)
T15 construct: purchased Eurofins (KinaseProfiler)
Outline: as §1

BTK(R28H)(h) = molecular target: T16, BTK(R28H)(h) (Homo sapiens, UniProt Q06187, R28H)
T16 construct: purchased Eurofins (KinaseProfiler)
Outline: as §1

CK1α(h) = molecular target: T17, CK1α(h) (Homo sapiens, UniProt P48729)
T17 construct: purchased Eurofins (KinaseProfiler)
Outline: as §1

MRCKγ(h) = molecular target: T18, MRCKγ(h) (Homo sapiens, UniProt Q6DT37)
T18 construct: purchased Eurofins (KinaseProfiler)
Outline: as §1

LIMK1(h) = molecular target: T19, LIMK1(h) (Homo sapiens, UniProt P53667)
T19 construct: purchased Eurofins (KinaseProfiler)
Outline: as §1

SIK3(h) = molecular target: T20, SIK3(h) (Homo sapiens, UniProt Q9Y2K2)
T20 construct: purchased Eurofins (KinaseProfiler)
Outline: as §1

[1] = molecular target: PI3 Kinase (p110a(E542K)/p85a)(m) (Mus musculus, UniProt P42337, E542K)
Outline: as §1

Ron(h) = molecular target: T21, Ron(h) (Homo sapiens, UniProt Q04912)
T21 construct: purchased Eurofins (KinaseProfiler)
Outline: as §1

[2] = molecular target: T22, PI3 Kinase (p110d/p85a)(h) (Homo sapiens, UniProt O00329)
T22 construct: purchased Eurofins (KinaseProfiler)
Outline: as §1

STK33(h) = molecular target: T23, STK33(h) (Homo sapiens, UniProt Q9BYT3)
T23 construct: purchased Eurofins (KinaseProfiler)
Outline: as §1

STK32B(h) = molecular target: T24, STK32B(h) (Homo sapiens, UniProt Q9NY57)
T24 construct: purchased Eurofins (KinaseProfiler)
Outline: as §1

EphB2(h) = molecular target: T25, EphB2(h) (Homo sapiens, UniProt P29323)
T25 construct: purchased Eurofins (KinaseProfiler)
Outline: as §1

DYRK2(h) = molecular target: T26, DYRK2(h) (Homo sapiens, UniProt Q92630)
T26 construct: purchased Eurofins (KinaseProfiler)
Outline: as §1

CaMKIγ(h) = molecular target: T27, CaMKIγ(h) (Homo sapiens, UniProt Q96NX5)
T27 construct: purchased Eurofins (KinaseProfiler)
Outline: as §1

EGFR(T790M,L858R)(h) = molecular target: T28, EGFR(T790M,L858R)(h) (Homo sapiens, UniProt P00533, L858R/T790M)
T28 construct: purchased Eurofins (KinaseProfiler)
Outline: as §1

EphA7(h) = molecular target: T29, EphA7(h) (Homo sapiens, UniProt Q15375)
T29 construct: purchased Eurofins (KinaseProfiler)
Outline: as §1

TRB2(h) = molecular target: T30, TRB2(h) (Homo sapiens, UniProt Q92519)
T30 construct: purchased Eurofins (KinaseProfiler)
Outline: as §1

MSK1(h) = molecular target: T31, MSK1(h) (Homo sapiens, UniProt O75582)
T31 construct: purchased Eurofins (KinaseProfiler)
Outline: as §1

TAF1L(h) = molecular target: T32, TAF1L(h) (Homo sapiens, UniProt Q8IZX4)
T32 construct: purchased Eurofins (KinaseProfiler)
Outline: as §1

FAK(h) = molecular target: T33, FAK(h) (Homo sapiens, UniProt Q05397)
T33 construct: purchased Eurofins (KinaseProfiler)
Outline: as §1

CDK17/cyclinY(h) = molecular target: T34, CDK17/cyclinY(h) (Homo sapiens, UniProt Q00537)
T34 construct: purchased Eurofins (KinaseProfiler)
Outline: as §1

GRK5(h) = molecular target: T35, GRK5(h) (Homo sapiens, UniProt P34947)
T35 construct: purchased Eurofins (KinaseProfiler)
Outline: as §1

Tie2(R849W)(h) = molecular target: T36, Tie2(R849W)(h) (Homo sapiens, UniProt Q02763, R849W)
T36 construct: purchased Eurofins (KinaseProfiler)
Outline: as §1

CDK7/cyclinH/MAT1(h) = molecular target: T37, CDK7/cyclinH/MAT1(h) (Homo sapiens, UniProt P50613)
T37 construct: purchased Eurofins (KinaseProfiler)
Outline: as §1

T2 sequence (P27448 whole entry): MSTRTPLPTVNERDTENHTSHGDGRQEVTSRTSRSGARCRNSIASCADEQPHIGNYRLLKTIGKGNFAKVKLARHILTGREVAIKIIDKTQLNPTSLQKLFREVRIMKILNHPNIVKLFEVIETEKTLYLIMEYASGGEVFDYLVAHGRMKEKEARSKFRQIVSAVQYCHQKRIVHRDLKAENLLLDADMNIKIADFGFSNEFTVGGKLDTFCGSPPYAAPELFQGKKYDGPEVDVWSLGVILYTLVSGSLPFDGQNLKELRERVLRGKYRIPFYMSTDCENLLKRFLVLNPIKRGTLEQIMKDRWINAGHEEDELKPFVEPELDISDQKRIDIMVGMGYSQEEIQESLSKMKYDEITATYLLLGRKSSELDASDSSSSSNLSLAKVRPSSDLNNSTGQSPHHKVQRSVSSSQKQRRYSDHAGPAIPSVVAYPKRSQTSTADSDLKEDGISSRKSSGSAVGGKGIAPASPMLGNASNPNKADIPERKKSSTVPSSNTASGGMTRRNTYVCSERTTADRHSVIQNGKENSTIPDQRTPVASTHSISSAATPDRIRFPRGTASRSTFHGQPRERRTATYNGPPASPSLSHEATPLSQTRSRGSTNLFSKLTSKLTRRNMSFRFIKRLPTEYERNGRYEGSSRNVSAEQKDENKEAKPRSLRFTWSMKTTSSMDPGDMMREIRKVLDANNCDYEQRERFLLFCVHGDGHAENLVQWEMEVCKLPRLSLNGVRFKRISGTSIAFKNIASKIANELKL
T32 sequence (Q8IZX4 whole entry): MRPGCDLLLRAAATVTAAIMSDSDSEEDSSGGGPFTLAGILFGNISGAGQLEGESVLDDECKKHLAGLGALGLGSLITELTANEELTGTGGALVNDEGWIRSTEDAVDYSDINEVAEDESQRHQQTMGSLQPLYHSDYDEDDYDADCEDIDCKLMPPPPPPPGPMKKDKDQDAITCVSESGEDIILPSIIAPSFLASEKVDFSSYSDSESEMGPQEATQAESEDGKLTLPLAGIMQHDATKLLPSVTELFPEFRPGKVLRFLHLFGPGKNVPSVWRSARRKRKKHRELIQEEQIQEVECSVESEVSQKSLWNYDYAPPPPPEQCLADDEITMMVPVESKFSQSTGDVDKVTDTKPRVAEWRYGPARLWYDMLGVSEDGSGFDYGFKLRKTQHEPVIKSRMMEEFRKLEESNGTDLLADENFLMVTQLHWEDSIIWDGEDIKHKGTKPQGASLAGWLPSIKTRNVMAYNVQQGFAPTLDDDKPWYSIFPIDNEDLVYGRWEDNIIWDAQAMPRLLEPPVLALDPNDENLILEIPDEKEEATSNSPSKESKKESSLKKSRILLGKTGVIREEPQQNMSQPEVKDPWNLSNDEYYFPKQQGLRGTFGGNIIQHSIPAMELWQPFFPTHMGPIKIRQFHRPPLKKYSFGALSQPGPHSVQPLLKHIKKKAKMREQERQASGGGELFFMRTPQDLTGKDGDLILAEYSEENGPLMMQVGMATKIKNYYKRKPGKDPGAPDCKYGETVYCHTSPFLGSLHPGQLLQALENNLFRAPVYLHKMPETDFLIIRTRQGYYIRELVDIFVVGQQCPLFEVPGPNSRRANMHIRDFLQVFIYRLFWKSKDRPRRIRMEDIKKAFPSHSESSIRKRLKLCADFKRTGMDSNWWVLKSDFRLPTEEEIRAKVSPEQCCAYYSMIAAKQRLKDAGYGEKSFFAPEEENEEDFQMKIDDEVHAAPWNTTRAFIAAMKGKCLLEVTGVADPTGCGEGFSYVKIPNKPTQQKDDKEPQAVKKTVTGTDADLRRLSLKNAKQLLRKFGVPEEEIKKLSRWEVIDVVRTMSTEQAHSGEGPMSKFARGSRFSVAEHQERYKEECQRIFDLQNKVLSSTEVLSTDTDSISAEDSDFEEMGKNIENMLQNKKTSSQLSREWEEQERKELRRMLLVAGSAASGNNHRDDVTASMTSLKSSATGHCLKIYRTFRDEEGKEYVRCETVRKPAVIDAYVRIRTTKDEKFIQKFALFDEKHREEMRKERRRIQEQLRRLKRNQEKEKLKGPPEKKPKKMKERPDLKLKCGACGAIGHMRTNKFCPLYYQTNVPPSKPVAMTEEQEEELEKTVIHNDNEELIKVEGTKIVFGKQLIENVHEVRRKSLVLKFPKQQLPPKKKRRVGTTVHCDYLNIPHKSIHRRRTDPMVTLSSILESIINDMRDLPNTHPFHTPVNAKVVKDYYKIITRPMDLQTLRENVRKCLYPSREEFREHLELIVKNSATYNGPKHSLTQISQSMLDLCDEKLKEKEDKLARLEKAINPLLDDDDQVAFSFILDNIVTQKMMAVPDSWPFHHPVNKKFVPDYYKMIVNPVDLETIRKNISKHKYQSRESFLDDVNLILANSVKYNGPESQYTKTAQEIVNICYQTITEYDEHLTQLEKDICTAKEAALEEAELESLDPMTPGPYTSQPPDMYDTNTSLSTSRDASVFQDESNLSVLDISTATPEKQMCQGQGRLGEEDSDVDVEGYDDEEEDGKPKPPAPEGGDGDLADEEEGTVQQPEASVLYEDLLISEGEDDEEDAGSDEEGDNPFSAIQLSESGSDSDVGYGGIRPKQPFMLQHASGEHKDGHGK
T10 sequence (P37023 22-503): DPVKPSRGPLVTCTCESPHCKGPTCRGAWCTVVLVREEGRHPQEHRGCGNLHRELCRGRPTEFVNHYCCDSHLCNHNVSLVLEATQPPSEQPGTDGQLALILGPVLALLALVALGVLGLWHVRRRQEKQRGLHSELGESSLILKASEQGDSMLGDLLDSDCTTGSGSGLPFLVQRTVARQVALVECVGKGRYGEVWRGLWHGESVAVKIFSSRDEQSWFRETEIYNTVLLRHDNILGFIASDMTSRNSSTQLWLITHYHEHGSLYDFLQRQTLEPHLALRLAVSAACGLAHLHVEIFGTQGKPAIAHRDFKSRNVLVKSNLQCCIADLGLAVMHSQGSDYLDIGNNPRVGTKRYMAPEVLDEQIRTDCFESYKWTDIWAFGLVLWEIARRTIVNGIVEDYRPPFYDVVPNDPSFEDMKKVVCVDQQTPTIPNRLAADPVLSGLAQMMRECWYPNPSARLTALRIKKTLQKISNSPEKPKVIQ
T11 sequence (P04629 33-796): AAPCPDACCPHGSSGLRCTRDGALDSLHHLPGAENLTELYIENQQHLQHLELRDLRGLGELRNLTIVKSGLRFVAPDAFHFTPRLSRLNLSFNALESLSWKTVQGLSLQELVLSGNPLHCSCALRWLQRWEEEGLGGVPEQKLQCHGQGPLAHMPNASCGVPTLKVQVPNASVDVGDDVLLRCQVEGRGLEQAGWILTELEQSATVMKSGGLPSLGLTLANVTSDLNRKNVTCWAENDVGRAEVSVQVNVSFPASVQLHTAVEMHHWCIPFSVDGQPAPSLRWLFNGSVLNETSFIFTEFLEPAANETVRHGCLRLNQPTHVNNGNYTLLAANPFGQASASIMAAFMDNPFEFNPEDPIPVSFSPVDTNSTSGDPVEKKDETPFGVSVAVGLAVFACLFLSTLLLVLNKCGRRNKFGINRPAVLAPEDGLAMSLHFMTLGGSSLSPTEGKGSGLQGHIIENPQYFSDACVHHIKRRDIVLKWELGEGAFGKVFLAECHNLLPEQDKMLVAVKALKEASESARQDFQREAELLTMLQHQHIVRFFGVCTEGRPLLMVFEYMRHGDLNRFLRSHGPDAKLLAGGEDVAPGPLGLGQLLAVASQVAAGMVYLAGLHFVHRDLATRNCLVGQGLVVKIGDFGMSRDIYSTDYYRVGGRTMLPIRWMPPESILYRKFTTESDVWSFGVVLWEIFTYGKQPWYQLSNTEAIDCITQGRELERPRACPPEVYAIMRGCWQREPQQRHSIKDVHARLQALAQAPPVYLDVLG
T12 sequence (O96013 whole entry): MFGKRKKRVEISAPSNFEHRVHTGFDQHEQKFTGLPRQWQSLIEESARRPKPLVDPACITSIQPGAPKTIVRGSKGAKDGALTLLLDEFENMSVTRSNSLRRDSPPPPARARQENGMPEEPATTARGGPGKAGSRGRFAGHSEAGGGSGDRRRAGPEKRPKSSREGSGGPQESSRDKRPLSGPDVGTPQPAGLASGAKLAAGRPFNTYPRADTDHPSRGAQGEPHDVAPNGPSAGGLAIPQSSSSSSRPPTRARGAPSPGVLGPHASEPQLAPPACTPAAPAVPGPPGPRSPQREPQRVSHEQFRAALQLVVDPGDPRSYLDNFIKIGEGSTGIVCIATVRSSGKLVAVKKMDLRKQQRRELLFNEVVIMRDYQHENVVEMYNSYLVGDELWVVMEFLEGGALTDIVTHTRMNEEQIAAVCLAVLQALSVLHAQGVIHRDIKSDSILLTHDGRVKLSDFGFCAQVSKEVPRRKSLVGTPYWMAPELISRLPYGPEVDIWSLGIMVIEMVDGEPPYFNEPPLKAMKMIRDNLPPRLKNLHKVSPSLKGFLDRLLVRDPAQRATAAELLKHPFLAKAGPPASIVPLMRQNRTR
T14 sequence (Q13153 whole entry): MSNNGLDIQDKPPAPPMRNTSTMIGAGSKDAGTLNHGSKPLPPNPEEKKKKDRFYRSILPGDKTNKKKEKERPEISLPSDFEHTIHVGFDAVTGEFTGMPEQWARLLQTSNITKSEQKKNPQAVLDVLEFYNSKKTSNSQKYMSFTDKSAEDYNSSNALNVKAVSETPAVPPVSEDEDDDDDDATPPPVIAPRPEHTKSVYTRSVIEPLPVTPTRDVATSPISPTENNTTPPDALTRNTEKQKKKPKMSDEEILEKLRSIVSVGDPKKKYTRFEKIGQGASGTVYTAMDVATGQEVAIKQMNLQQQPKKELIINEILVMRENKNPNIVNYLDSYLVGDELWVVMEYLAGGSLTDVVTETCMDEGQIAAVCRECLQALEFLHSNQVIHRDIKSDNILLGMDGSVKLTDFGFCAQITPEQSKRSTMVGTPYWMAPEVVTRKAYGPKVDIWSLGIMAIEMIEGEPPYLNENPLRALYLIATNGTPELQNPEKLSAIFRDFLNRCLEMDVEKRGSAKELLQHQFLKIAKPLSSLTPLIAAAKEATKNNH

## Cc1cc(/C=C/C#N)cc(C)c1Nc1ccnc(Nc2ccc(C#N)cc2)n1 [rilpivirine, (E)-4-((4-((4-(2-cyanoethenyl)-2,6-dimethylphenyl)amino)pyrimidin-2-yl)amino)benzonitrile]
Ret(h)
  remaining activity at 1 µM: 108%
MARK3(h)
  remaining activity at 1 µM: 87%
CK1γ1(h)
  remaining activity at 1 µM: 80%
TNIK(h)
  remaining activity at 1 µM: 50%
NEK1(h)
  remaining activity at 1 µM: 86%
TrkB(h)
  remaining activity at 1 µM: 72%
SGK3(h)
  remaining activity at 1 µM: 99%
MRCKβ(h)
  remaining activity at 1 µM: 87%
EphA8(h)
  remaining activity at 1 µM: 60%
ALK1(h)
  remaining activity at 1 µM: 84%
TrkA(h)
  remaining activity at 1 µM: 101%
PAK4(h)
  remaining activity at 1 µM: 87%
STK32A(h)
  remaining activity at 1 µM: 89%
PAK1(h)
  remaining activity at 1 µM: 92%
Hck(h)
  remaining activity at 1 µM: 50%
BTK(R28H)(h)
  remaining activity at 1 µM: 97%
CK1α(h)
  remaining activity at 1 µM: 103%
MRCKγ(h)
  remaining activity at 1 µM: 90%
LIMK1(h)
  remaining activity at 1 µM: 47%
SIK3(h)
  remaining activity at 1 µM: 89%
[1]
  remaining activity at 1 µM: 101%
Ron(h)
  remaining activity at 1 µM: 85%
[2]
  remaining activity at 1 µM: 89%
STK33(h)
  remaining activity at 1 µM: 102%
STK32B(h)
  remaining activity at 1 µM: 99%
EphB2(h)
  remaining activity at 1 µM: 78%
DYRK2(h)
  remaining activity at 1 µM: 89%
CaMKIγ(h)
  remaining activity at 1 µM: 95%
EGFR(T790M,L858R)(h)
  remaining activity at 1 µM: 88%
EphA7(h)
  remaining activity at 1 µM: 96%
TRB2(h)
  remaining activity at 1 µM: 65%
MSK1(h)
  remaining activity at 1 µM: 97%
TAF1L(h)
  remaining activity at 1 µM: 55%
FAK(h)
  remaining activity at 1 µM: 86%
CDK17/cyclinY(h)
  remaining activity at 1 µM: 78%
GRK5(h)
  remaining activity at 1 µM: 96%
Tie2(R849W)(h)
  remaining activity at 1 µM: 86%
CDK7/cyclinH/MAT1(h)
  remaining activity at 1 µM: 78%
